Results reported in patent publication US12428389B2, “Diarylamide compound and application thereof” (Sunshine Lake Pharma Co., Ltd., priority 2019, dated 2025).
Like-named read-outs stand apart in the source and are kept apart here.

Columns and labels:
UT-B [1] = target: T1, UT-B (Mus musculus, UniProt Q8VHL0); test: erythrocyte lysis model, mouse erythrocytes; format: cell-based; conditions: concentration when the erythrocyte lysis rate of mice was 50%
T1 construct: endogenous in cells; host or cells: erythrocytes of C57 mice
T1 sequence (Q8VHL0 1-384): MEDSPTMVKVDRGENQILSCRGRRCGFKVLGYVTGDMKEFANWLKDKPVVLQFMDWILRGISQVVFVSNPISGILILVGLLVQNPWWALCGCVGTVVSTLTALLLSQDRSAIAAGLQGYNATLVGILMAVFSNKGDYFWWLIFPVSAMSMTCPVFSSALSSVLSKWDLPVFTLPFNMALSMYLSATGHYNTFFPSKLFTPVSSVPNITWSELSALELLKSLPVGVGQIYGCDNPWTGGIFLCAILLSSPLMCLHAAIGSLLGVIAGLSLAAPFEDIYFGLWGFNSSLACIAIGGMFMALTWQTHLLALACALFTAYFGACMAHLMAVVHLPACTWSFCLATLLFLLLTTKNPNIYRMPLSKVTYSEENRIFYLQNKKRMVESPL
Description: (§1) Erythrocyte lysis rate was calculated:
(§2) The formula for calculating the lysis rate percentage of erythrocytes, wherein Atest was the absorbance value of the test well, Aneg was the absorbance value of the negative control well, and Apos was the absorbance value of the positive control well. Erythrocyte lysis rate was calculated by measuring absorption at a wavelength of 710 nm.
(§3) The erythrocytes of three species of human, rats (SD rats) and mice (C57 mice) were taken, and urea transporter inhibitors were preliminarily screened from the above screening compound library by using the erythrocyte urea transporter inhibitor screening model.

UT-B [2] = target: T2, UT-B (Rattus norvegicus, UniProt P97689); test: erythrocyte lysis model, rat erythrocytes; format: cell-based, rats
T2 construct: endogenous in cells; host or cells: erythrocytes of SD rats
T2 sequence (P97689 1-384): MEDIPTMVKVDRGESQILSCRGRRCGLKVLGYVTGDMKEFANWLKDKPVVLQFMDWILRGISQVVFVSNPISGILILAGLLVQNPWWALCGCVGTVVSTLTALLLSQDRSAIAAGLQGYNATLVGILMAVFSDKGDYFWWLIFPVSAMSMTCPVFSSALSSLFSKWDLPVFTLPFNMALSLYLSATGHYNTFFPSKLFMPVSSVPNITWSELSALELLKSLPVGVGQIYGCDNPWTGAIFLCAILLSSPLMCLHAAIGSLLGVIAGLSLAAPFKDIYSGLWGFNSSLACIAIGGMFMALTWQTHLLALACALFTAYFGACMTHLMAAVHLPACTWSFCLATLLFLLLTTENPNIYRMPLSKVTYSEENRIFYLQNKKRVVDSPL
Description: as §1, §2, §3

human UT-B = target: T3, human UT-B (Homo sapiens, UniProt Q13336); test: erythrocyte lysis model, human erythrocytes; format: cell-based
T3 construct: endogenous in cells; host or cells: human erythrocytes
T3 sequence (Q13336 1-389): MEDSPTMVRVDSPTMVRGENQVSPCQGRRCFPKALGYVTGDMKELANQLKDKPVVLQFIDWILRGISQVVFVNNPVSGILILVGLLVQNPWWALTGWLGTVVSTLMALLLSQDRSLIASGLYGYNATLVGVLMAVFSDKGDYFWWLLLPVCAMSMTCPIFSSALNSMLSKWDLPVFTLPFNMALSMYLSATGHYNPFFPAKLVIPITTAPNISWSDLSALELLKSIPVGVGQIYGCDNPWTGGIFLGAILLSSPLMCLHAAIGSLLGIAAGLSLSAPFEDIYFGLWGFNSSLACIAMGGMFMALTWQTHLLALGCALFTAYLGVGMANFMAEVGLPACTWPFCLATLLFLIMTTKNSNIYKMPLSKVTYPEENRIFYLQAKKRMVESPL
Description: as §1, §2, §3

[3] = concentration when the erythrocyte lysis rate of rats was 50%, read-out: IC50 rats
[4] = class of the IC50 to human UT-B, read-out: Activity level
[5] = concentration when the erythrocyte lysis rate of human was 50%, read-out: IC50 human

IC50 (UT-B [1]) [µM]	IC50 (UT-B [2]; [3]) [µM]	IC50 (human UT-B; [4]) [µM]	IC50 (human UT-B; [5]) [µM]	SMILES	IC50 (UT-B [2]) [µM]	IC50 (human UT-B; Activity level, class of the IC50 to human UT-B) [µM]	IC50 (human UT-B; IC50 human, concentration when the erythrocyte lysis rate of human was 50%) [µM]
17.1	4.11	< 10	4.87	COc1ccccc1NC(=O)c1ccc([N+](=O)[O-])o1 [Example 29, N-(2-methoxyphenyl)-5-nitrofuran-2-carboxamide]	–	–	–
0.5	0.17	< 10	0.42	NC(=O)c1cccc(NC(=O)c2ccc([N+](=O)[O-])o2)c1 [Example 44, N-(3-carbamoylphenyl)-5-nitrofuran-2-carboxamide]	–	–	–
9.28	1.85	< 10	3.09	O=C(Nc1cccc(F)c1)c1ccc([N+](=O)[O-])o1 [Example 36, N-(3-fluorophenyl)-5-nitrofuran-2-carboxamide]	–	–	–
5.41	1.21	< 10	0.88	CCNC(=O)c1cccc(NC(=O)c2ccc([N+](=O)[O-])o2)c1 [Example 55, N-(3-(ethylcarbamoyl)phenyl)-5-nitrofuran-2-carboxamide]	–	–	–
7.85	2.77	< 10	1	N#Cc1cccc(NC(=O)c2ccc([N+](=O)[O-])o2)c1 [Example 40, N-(3-cyanophenyl)-5-nitrofuran-2-carboxamide]	–	–	–
2.46	0.49	< 10	1.84	CC(=O)c1cccc(NC(=O)c2ccc([N+](=O)[O-])o2)c1 [Example 46, N-(3-acetylphenyl)-5-nitrofuran-2-carboxamide]	–	–	–
4.94	1.1	< 10	0.82	C#Cc1cccc(NC(=O)c2ccc([N+](=O)[O-])o2)c1 [Example 79, N-3-(ethynylphenyl)-5-nitrofuran-2-carboxamide]	–	–	–
9.7	1.76	< 10	3.94	CC(C)NC(=O)c1cccc(NC(=O)c2ccc([N+](=O)[O-])o2)c1 [Example 56, N-(3-(isopropylcarbamoyl)phenyl)-5-nitrofuran-2-carboxamide]	–	–	–
1.69	0.49	< 10	0.94	NCc1ccc(NC(=O)c2ccc([N+](=O)[O-])o2)cc1 [Example 51, N-(4-aminomethylphenyl)-5-nitrofuran-2-carboxamide]	–	–	–
2.22	0.87	< 10	3.29	CNC(=O)c1cc(F)cc(NC(=O)c2ccc([N+](=O)[O-])o2)c1 [Example 66, N-(5-fluoro-3-methylcarbomoylphenyl)-5-nitrofuran-2-carboxamide]	–	–	–

Second part, the compound before the results:

SMILES	IC50 (UT-B [1]) [µM]	IC50 (UT-B [2]; [3]) [µM]	IC50 (human UT-B; [4]) [µM]	IC50 (human UT-B; [5]) [µM]	IC50 (UT-B [2]) [µM]	IC50 (human UT-B; Activity level, class of the IC50 to human UT-B) [µM]	IC50 (human UT-B; IC50 human, concentration when the erythrocyte lysis rate of human was 50%) [µM]
CNC(=O)c1cc(NC(=O)c2ccc([N+](=O)[O-])o2)ccc1C [Example 63, N-(4-methyl-3-methylcarbamoylphenyl)-5-nitrofuran-2-carboxamide]	1.23	1.76	< 10	1.7	–	–	–
O=C(Nc1ccon1)c1ccc([N+](=O)[O-])o1 [Example 19, N-(isoxazol-3-yl)-5-nitrofuran-2-carboxamide]	10.2	30	< 10	3.63	–	–	–
CNC(=O)c1cc(NC(=O)c2ccc([N+](=O)[O-])o2)cc(C(=O)NC)c1 [Example 68, N^1,N^3-dimethyl-5-(5-nitrofuran-2-carboxamide) isophthalamide]	5.69	34.3	20 to 80	22.8	–	–	–
O=C(CN1CCOCC1)Nc1ccc(NC(=O)c2ccc([N+](=O)[O-])o2)cc1 [Example 72, N-(4-(2-morpholinyl)acetamidophenyl)-5-nitrofuran-2-carboxamide]	7.38	2.87	< 10	3.05	–	–	–
Cn1cc(NC(=O)c2ccc([N+](=O)[O-])o2)cn1 [Example 22, N-(1-methyl-1H-pyrazol-4-yl)-5-nitrofuran-2-carboxamide]	33.2	9.64	10 to 20	15.8	–	–	–
CN(C)CCNCC(=O)Nc1ccc(NC(=O)c2ccc([N+](=O)[O-])o2)cc1 [Example 74, N-(4-((2-dimethylamino)ethylamino)acetamidophenyl)-5-nitrofuran-2-carboxamide]	9.59	1.24	< 10	3.01	–	–	–
CCOC(=O)c1cc(NC(=O)c2ccc([N+](=O)[O-])o2)[nH]n1 [Example 77, ethyl 5-(5-nitrofuran-2-carboxamide)-1H-pyrazole-3-carboxylate]	11.5	7.81	< 10	1.63	–	–	–
O=C(NCc1ccccc1)c1cccc(NC(=O)c2ccc([N+](=O)[O-])o2)c1 [Example 59, N-(3-(benzylcarbamoyl)phenyl)-5-nitrofuran-2-carboxamide]	1.02	0.26	< 10	0.49	–	–	–
CN(C)CC(=O)Nc1ccc(NC(=O)c2ccc([N+](=O)[O-])o2)cc1 [Example 71, N-(4-(2-dimethylamino)acetamidophenyl)-5-nitrofuran-2-carboxamide]	5.41	0.57	< 10	1.25	–	–	–
O=C(NCCCN1CCOCC1)c1cccc(NC(=O)c2ccc([N+](=O)[O-])o2)c1 [Example 62, N-(3-((3-morpholinylpropyl)carbamoyl)phenyl)-5-nitrofuran-2-carboxamide]	4.32	1.41	< 10	3.31	–	–	–
CC(=O)Nc1ccc(NC(=O)c2ccc([N+](=O)[O-])s2)cc1 [Example 9, N-(4-acetamidophenyl)-5-nitrothiophene-2-carboxamide]	18.7	20.1	< 10	2.53	–	–	–
CN1C(=O)c2ccc(NC(=O)c3ccc([N+](=O)[O-])o3)cc2C1=O [Example 69, N-(2-methyl-1,3-dihydro-1,3-dioxo-2H-isoindol-5-yl)-5-nitrofuran-2-carboxamide]	5.16	2.96	10 to 20	12.3	–	–	–
O=C(NC1CCCCC1)c1cccc(NC(=O)c2ccc([N+](=O)[O-])o2)c1 [Example 58, N-(3-(cyclohexylcarbamoyl)phenyl)-5-nitrofuran-2-carboxamide]	2.63	0.9	< 10	1.77	–	–	–
O=C(NCCN1CCOCC1)c1cccc(NC(=O)c2ccc([N+](=O)[O-])o2)c1 [Example 61, N-(3-((2-morpholinylethyl)carbamoyl)phenyl)-5-nitrofuran-2-carboxamide]	2.61	1.09	< 10	0.54	–	–	–
O=C(Nc1ccc(NC(=O)c2ccc([N+](=O)[O-])o2)cc1)c1ccc([N+](=O)[O-])o1 [Example 52, N,N′-(1,4-phenylene)bis(5-nitrofuran-2-carboxamide)]	0.52	–	–	–	0.27	< 10	0.65
O=C(Nc1cc[nH]n1)c1ccc([N+](=O)[O-])o1 [Example 20, N-(1H-pyrazol-5-yl)-5-nitrofuran-2-carboxamide]	1.09	1.36	< 10	0.22	–	–	–
CCOC(=O)c1c[nH]nc1NC(=O)c1ccc([N+](=O)[O-])o1 [Example 76, ethyl 5-(5-nitrofuran-2-carboxamide)-1H-pyrazole-4-carboxylate]	15	–	> 80	> 80	–	–	–
